Data as given in ChEMBL document CHEMBL3991601, “The target landscape of clinical kinase drugs” (Science, 2017).
Active and inactive are the calls of the source.

Experiments:
[1] = target: Calcium/calmodulin-dependent protein kinase type II subunit delta (Homo sapiens, UniProt Q13557)
[2] = target: T1, Serine/threonine-protein kinase D3 (Homo sapiens, UniProt O94806)
T1 sequence (O94806 whole entry): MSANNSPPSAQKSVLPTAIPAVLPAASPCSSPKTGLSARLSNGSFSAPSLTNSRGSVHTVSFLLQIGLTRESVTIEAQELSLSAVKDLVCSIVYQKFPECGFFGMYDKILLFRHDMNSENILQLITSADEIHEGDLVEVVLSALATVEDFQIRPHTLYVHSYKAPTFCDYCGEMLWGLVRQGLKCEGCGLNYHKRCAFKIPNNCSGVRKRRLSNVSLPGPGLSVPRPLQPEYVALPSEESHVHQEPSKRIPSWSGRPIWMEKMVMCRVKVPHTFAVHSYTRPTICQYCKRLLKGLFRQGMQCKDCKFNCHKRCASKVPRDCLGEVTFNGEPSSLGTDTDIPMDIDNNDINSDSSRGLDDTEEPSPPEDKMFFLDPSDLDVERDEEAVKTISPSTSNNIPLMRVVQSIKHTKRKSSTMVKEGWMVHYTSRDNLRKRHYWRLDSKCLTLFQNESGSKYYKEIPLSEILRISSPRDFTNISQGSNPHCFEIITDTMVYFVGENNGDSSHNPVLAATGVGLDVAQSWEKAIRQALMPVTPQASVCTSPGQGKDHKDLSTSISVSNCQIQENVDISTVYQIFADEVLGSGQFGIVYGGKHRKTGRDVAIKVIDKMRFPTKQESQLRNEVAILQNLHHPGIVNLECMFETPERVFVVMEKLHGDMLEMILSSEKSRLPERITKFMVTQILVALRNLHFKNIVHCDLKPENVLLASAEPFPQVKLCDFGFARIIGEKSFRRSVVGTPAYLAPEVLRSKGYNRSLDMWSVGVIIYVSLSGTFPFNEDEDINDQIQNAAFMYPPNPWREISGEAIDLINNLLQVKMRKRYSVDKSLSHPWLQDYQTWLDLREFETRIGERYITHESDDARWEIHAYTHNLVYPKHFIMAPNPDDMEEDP

[3] = target: Tyrosine-protein kinase Fer (Homo sapiens, UniProt P16591)
[4] = target: Calcium/calmodulin-dependent protein kinase type II subunit gamma (Homo sapiens, UniProt Q13555)
[5] = target: T2, Delta(24)-sterol reductase (Homo sapiens, UniProt Q15392)
T2 sequence (Q15392 whole entry): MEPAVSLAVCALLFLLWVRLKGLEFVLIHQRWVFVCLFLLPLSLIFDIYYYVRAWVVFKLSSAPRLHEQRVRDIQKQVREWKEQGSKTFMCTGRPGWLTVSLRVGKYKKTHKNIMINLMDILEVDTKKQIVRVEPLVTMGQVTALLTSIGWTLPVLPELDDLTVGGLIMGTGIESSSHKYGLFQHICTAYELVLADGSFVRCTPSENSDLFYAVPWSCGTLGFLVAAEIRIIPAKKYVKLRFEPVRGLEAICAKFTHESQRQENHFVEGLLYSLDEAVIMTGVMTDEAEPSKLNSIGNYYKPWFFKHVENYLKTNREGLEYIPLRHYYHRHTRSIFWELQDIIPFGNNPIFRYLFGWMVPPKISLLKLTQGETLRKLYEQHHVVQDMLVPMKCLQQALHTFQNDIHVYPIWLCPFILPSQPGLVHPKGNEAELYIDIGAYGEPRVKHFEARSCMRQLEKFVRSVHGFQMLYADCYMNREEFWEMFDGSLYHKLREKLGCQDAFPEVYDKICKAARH

[6] = target: Cyclin-dependent kinase 17 (Homo sapiens, UniProt Q00537)
[7] = target: Inosine-5'-monophosphate dehydrogenase 2 (Homo sapiens, UniProt P12268)
[8] = target: T3, Serine/threonine-protein kinase Chk1 (Homo sapiens, UniProt O14757)
T3 sequence (O14757 whole entry): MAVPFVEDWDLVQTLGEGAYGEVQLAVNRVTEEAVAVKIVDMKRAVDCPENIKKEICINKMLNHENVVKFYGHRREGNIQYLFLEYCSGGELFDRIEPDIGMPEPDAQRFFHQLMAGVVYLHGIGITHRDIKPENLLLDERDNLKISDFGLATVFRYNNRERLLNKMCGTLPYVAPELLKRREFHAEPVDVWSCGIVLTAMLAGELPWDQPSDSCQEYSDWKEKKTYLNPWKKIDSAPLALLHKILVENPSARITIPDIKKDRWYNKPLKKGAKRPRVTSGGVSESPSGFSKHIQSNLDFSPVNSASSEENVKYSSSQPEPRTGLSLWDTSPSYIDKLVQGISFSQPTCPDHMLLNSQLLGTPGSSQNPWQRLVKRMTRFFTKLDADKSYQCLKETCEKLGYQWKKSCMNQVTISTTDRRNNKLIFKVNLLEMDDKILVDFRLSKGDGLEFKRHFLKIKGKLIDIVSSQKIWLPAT

[9] = target: Adenosine kinase (Homo sapiens, UniProt P55263)
[10] = target: T4, MAP kinase-activated protein kinase 5 (Homo sapiens, UniProt Q8IW41)
T4 sequence (Q8IW41 whole entry): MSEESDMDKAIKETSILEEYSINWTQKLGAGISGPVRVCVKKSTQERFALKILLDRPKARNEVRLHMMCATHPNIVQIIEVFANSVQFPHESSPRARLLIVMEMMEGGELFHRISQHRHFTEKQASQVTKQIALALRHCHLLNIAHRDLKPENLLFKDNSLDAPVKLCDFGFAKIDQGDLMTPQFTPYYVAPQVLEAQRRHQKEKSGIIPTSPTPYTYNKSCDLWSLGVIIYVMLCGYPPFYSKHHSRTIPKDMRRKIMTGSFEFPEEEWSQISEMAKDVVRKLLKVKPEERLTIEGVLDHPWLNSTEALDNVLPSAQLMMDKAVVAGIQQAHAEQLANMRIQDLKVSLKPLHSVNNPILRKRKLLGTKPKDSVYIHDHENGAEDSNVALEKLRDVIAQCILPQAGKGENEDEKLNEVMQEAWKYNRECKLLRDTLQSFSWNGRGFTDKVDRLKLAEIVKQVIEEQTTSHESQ
Also: in the data inactive means no Kd found up to 30 µM.

Sequence of Calcium/calmodulin-dependent protein kinase type II subunit gamma (Q13555 whole entry): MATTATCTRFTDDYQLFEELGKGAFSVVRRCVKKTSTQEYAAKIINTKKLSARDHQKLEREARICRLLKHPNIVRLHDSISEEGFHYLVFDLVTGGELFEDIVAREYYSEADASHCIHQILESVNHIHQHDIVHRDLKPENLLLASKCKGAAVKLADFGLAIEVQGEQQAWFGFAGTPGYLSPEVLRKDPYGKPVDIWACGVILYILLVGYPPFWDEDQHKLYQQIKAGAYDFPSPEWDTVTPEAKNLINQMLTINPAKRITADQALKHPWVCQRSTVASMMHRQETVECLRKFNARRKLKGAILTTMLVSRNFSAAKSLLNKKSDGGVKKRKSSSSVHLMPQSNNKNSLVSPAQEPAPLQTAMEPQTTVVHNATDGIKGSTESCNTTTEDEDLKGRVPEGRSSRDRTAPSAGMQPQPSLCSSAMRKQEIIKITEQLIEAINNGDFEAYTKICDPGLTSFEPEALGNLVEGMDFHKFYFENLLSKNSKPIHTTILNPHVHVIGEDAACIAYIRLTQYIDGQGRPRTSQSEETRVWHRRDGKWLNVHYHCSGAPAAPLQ
Sequence of Cyclin-dependent kinase 17 (Q00537 whole entry): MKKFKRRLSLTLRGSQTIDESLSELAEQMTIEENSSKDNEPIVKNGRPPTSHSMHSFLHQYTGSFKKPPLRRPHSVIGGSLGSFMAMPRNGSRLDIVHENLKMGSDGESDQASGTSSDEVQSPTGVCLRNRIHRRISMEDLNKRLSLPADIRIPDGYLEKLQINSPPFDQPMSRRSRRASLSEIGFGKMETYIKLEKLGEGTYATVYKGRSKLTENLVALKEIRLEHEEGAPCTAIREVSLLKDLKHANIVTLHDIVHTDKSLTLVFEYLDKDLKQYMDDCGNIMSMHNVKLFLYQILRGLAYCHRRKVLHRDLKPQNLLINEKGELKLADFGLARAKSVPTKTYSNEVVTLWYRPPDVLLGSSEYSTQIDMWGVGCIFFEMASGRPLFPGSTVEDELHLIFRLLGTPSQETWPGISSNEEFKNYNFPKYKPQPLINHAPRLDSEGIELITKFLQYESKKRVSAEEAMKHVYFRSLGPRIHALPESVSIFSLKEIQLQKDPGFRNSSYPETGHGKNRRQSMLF
Sequence of Calcium/calmodulin-dependent protein kinase type II subunit delta (Q13557 whole entry): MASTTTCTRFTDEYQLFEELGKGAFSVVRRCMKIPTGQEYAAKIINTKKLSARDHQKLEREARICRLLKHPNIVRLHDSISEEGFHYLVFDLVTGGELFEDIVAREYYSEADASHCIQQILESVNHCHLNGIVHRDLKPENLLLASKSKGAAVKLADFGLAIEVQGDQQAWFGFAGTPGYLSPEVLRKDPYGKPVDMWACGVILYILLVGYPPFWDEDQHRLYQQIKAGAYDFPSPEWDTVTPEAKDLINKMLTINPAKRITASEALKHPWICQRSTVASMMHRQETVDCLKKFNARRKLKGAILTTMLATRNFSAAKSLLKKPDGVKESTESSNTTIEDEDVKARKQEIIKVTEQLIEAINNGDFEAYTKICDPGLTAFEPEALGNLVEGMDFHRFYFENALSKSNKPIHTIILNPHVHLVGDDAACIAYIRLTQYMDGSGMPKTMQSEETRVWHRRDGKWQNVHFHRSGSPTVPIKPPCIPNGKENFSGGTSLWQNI
Sequence of Adenosine kinase (P55263 whole entry): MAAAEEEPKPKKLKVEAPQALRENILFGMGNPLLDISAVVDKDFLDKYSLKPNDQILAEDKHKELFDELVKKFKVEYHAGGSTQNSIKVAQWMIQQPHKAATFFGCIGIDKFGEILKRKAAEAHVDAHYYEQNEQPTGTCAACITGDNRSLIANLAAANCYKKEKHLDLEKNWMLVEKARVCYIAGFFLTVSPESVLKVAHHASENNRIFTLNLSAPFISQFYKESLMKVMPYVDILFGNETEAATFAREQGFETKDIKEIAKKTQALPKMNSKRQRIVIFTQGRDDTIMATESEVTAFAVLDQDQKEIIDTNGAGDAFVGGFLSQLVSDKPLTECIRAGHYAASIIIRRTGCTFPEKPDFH
Sequence of Tyrosine-protein kinase Fer (P16591 whole entry): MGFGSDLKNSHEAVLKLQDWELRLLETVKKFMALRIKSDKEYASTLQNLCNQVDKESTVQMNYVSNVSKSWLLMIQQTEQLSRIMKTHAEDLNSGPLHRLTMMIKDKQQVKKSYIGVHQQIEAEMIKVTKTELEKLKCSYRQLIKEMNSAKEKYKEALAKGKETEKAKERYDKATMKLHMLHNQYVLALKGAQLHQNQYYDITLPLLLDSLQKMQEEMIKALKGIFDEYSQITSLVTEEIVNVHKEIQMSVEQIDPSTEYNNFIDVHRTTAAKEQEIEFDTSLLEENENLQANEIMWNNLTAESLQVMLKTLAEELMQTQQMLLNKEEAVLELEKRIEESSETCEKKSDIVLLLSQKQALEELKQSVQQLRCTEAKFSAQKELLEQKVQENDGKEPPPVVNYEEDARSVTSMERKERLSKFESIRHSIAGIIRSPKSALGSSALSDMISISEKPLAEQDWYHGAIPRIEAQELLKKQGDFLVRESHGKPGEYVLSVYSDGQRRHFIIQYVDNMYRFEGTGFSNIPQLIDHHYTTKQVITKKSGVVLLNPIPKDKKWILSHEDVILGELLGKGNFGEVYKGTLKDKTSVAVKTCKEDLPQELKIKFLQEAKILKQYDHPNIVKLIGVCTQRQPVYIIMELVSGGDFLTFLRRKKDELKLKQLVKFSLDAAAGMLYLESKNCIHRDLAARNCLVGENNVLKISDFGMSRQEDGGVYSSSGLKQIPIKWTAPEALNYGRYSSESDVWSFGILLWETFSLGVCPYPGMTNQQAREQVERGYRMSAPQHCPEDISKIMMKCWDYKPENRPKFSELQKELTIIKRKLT

Kd [1]	Kd [3]	Kd [4]	Kd [5]	Kd [6]	Kd [7]	Kd [8]	Kd [9]	SMILES	Kd [2]	Kd [10]
> 30 µM (inactive)	> 30 µM (inactive)	> 30 µM (inactive)	> 30 µM (inactive)	> 30 µM (inactive)	> 30 µM (inactive)	> 30 µM (inactive)	> 30 µM (inactive)	C[C@H]1CNCCCN1S(=O)(=O)c1cccc2cncc(F)c12	> 30 µM (inactive)	–
> 30 µM (inactive)	0.385 µM (active)	> 30 µM (inactive)	> 30 µM (inactive)	> 30 µM (inactive)	> 30 µM (inactive)	> 30 µM (inactive)	> 30 µM (inactive)	CCNC(=O)C#Cc1ccc2c(c1)NC(=O)/C2=C(\Nc1ccc(CN(C)C)cc1)c1ccccc1	> 30 µM (inactive)	–
–	–	–	> 30 µM (inactive)	> 30 µM (inactive)	> 30 µM (inactive)	–	> 30 µM (inactive)	COc1cc(Nc2ncc3c(n2)-c2ccc(Cl)cc2C(c2c(F)cccc2OC)=NC3)ccc1C(=O)O [ALISERTIB]	–	–
> 30 µM (inactive)	–	> 30 µM (inactive)	> 30 µM (inactive)	1.15 µM (active)	> 30 µM (inactive)	0.084 µM (active)	> 30 µM (inactive)	O=C(Nc1c[nH]nc1-c1nc2cc(CN3CCOCC3)ccc2[nH]1)NC1CC1 [AT-9283]	–	0.589 µM (active)
–	–	–	> 30 µM (inactive)	–	> 30 µM (inactive)	–	> 30 µM (inactive)	CNC(=O)c1ccccc1Sc1ccc2c(/C=C/c3ccccn3)n[nH]c2c1 [AXITINIB]	–	–
> 30 µM (inactive)	> 30 µM (inactive)	> 30 µM (inactive)	> 30 µM (inactive)	> 30 µM (inactive)	> 30 µM (inactive)	> 30 µM (inactive)	> 30 µM (inactive)	CCn1c(C(=O)N(C2CC2)C2CC2)cc2c3c(ncn3C)c(Nc3cc(C)n(C)n3)nc21 [BMS-911543]	> 30 µM (inactive)	–
–	–	–	> 30 µM (inactive)	–	> 30 µM (inactive)	–	2.51 µM (active)	C[C@@H](Oc1cc(-n2cnc3ccc(CN4CCN(C)CC4)cc32)sc1C(N)=O)c1ccccc1C(F)(F)F [GSK-461364]	–	–
–	–	–	> 30 µM (inactive)	> 30 µM (inactive)	> 30 µM (inactive)	–	> 30 µM (inactive)	Cc1[nH]c(/C=C2\C(=O)Nc3ccccc32)c(C)c1CCC(=O)O [ORANTINIB]	–	–
–	–	–	> 30 µM (inactive)	–	> 30 µM (inactive)	–	> 30 µM (inactive)	NC(=O)c1c(OCc2c(F)cc(Br)cc2F)nsc1NC(=O)NCCCCN1CCCC1 [OSI-632]	–	–
–	–	–	> 30 µM (inactive)	> 30 µM (inactive)	–	–	> 30 µM (inactive)	CC(=O)NCC(=O)N1[C@@H]2CC[C@H]1c1ccc(Nc3ncc(C(F)(F)F)c(NC4CCC4)n3)cc12 [PF-03814735]	–	–
> 30 µM (inactive)	> 30 µM (inactive)	> 30 µM (inactive)	> 30 µM (inactive)	> 30 µM (inactive)	> 30 µM (inactive)	–	> 30 µM (inactive)	Cc1cnc(NC(=O)Nc2cc(Br)c(C)cc2OC[C@@H]2CNCCO2)cn1 [RABUSERTIB]	> 30 µM (inactive)	> 30 µM (inactive)
–	–	–	> 30 µM (inactive)	–	> 30 µM (inactive)	–	–	O=C(NOCCO)c1cc(CN2OCCCC2=O)c(F)c(F)c1Nc1ccc(I)cc1F [RO-4987655]	–	–
–	–	0.259 µM (active)	> 30 µM (inactive)	–	> 30 µM (inactive)	–	> 30 µM (inactive)	N#CC[C@H](C1CCCC1)n1cc(-c2ncnc3[nH]ccc23)cn1 [RUXOLITINIB]	–	–
> 30 µM (inactive)	> 30 µM (inactive)	> 30 µM (inactive)	> 30 µM (inactive)	> 30 µM (inactive)	> 30 µM (inactive)	–	> 30 µM (inactive)	Cn1cc(-c2cnn3c(N)c(Br)c([C@@H]4CCCNC4)nc23)cn1 [SCH-900776]	> 30 µM (inactive)	> 30 µM (inactive)

SMILES	Kd [1]	Kd [3]	Kd [4]	Kd [5]	Kd [6]	Kd [7]	Kd [8]	Kd [9]	Kd [2]	Kd [10]
CC(=O)c1cnc2ccc(-c3cc(Cl)c(O)c(Cl)c3)nc2c1N[C@H]1CC[C@H](CN(C)C)CC1	> 30 µM (inactive)	–	> 30 µM (inactive)	> 30 µM (inactive)	> 30 µM (inactive)	–	> 30 µM (inactive)	> 30 µM (inactive)	0.093 µM (active)	0.272 µM (active)
NC(=O)Nc1cc(-c2cccc(F)c2)sc1C(=O)N[C@H]1CCCNC1 [AZD-7762]	> 30 µM (inactive)	–	> 30 µM (inactive)	> 30 µM (inactive)	> 30 µM (inactive)	> 30 µM (inactive)	–	> 30 µM (inactive)	2.14 µM (active)	> 30 µM (inactive)
CC(C)(C)c1nc(-c2cccc(NS(=O)(=O)c3c(F)cccc3F)c2F)c(-c2ccnc(N)n2)s1 [DABRAFENIB]	> 30 µM (inactive)	> 30 µM (inactive)	> 30 µM (inactive)	> 30 µM (inactive)	0.036 µM (active)	> 30 µM (inactive)	–	> 30 µM (inactive)	0.12 µM (active)	–
Cn1cc(C2=C(c3cn(C4CCN(Cc5ccccn5)CC4)c4ccccc34)C(=O)NC2=O)c2ccccc21 [ENZASTAURIN]	–	–	–	> 30 µM (inactive)	–	> 30 µM (inactive)	–	> 30 µM (inactive)	–	–
O=C(Nc1cc(C(F)(F)F)cc(C(F)(F)F)c1)c1cc(Cl)ccc1O [IMD-0354]	> 30 µM (inactive)	> 30 µM (inactive)	> 30 µM (inactive)	> 30 µM (inactive)	> 30 µM (inactive)	> 30 µM (inactive)	–	> 30 µM (inactive)	> 30 µM (inactive)	> 30 µM (inactive)
CNC(=O)c1cc(Oc2ccc(NC(=O)Nc3cc(C(C)(C)C)nn3-c3ccc4ncccc4c3)c(F)c2)ccn1 [REBASTINIB]	> 30 µM (inactive)	–	> 30 µM (inactive)	> 30 µM (inactive)	0.007 µM (active)	> 30 µM (inactive)	> 30 µM (inactive)	> 30 µM (inactive)	> 30 µM (inactive)	> 30 µM (inactive)
